One data set has as its system Coxsackie-virus B1. Description: Cytopathic effect (CPE) inhibition assay. The data set is classed as cell-based, Coxsackievirus B1. Conditions: Enterovirus B, HeLa37, 48 h, HeLa, 37° C., 2 days. In general terms: Cytopathic effects are the visible damage that an infection or toxin causes in cultured cells.
A short description of a further data set: in vitro. As to conditions: human.
Another data set relates to Coxsackie-virus B3. Description: Cytopathic effect (CPE) inhibition assay. Conditions: Enterovirus B, HeLa37, 48 h, HeLa, 37° C., 2 days. It is filed as cell-based, Coxsackievirus B3.
The next data set concerns Polio-virus 3. Nature of the data set: microbe, parasite or virus in culture. As to conditions: Enterovirus C, HeLa37, 48 h, read-out: Polio-virus 3 EC50. It is filed as cell-based, Poliovirus 3.
Setting [1] is: Table 3, read-out: EC50 Coxsackie-virus B1.
[2] abbreviates: Table 4, read-out: Coxsackie-virus B3 EC50.
The mark [3] stands for this setting: Table 4, read-out: Coxsackie-virus B1 EC50.

Drawing on patent publication US9833423B2 (KOREA RESEARCH INSTITUTE OF CHEMICAL TECHNOLOGY, priority 2011, dated 2017), this text covers melting point, EC50 and CC50 for 27 compounds.

SMILES strings stand for the structures. Converted amounts (≈) assume the structure as drawn. Where two headings read alike, the source gives them in different places.

Consider `CC(=O)Oc1cc(C(C)(C)C)ccc1C1(OC(C)=O)C(=O)c2ccccc2C1=O` [Example 15, 2-(2-Acetoxy-1,3-dioxo-2,3-dihydro-1H-inden-2-yl)-5-tert-butylphenyl acetate], for which the melting point (in general, the temperature of the solid-liquid transition) was in the range of 119 to 120 °C. In the data set with Coxsackie-virus B1 (setting [1]), the half-maximal effective concentration (EC50) (as a rule, the midpoint of the concentration-response curve) was found to be 0.015 µg/mL. The CC50 in the data set “in vitro” (CC50) worked out at 8.26 µg/mL.
Taken in the same sequence, the figures for `CCC(=O)Oc1cc(C(C)C)ccc1C1(OC(=O)CC)C(=O)c2ccccc2C1=O` [Example 21, 2-(1,3-Dioxo-2-(propionyloxy)-2,3-dihydro-1H-inden-2-yl)-5-isopropylphenyl propionate] were 123 to 125 °C, under 0.01 µg/mL and 16 µg/mL (≈ 39.2 µM).
As for `CCCC(=O)Oc1cc(C(C)C)ccc1C1(OC(=O)CCC)C(=O)c2ccccc2C1=O` [Example 22, 2-(2-(Butyryloxy)-1,3-dioxo-2,3-dihydro-1H-inden-2-yl)-5-isopropylphenyl butyrate], the melting point was in the range of 98 to 102 °C. Moreover, the EC50 in the data set with Coxsackie-virus B1 (setting [1]) is under 0.01 µg/mL. The compound also had a CC50 in the data set “in vitro” (CC50) of 33.8 µg/mL (≈ 77.4 µM).
For `CC(C)c1ccc(C2(OC(=O)c3ccccc3)C(=O)c3ccccc3C2=O)c(O)c1` [Example 23, 2-(2-Hydroxy-4-isopropylphenyl)-1,3-dioxo-2,3-dihydro-1H-inden-2-yl benzoate], in that order: 117 to 119 °C, under 0.01 µg/mL and 44.3 µg/mL (≈ 111 µM).
Take `CC(C)c1ccc(C2(O)C(=O)c3ccccc3C2=O)c(OC(=O)/C=C/c2ccccc2)c1` [Example 30, 2-(2-Hydroxy-1,3-dioxo-2,3-dihydro-1H-inden-2-yl)-5-isopropylphenyl cinnamate]: the melting point was 95 to 97 °C. For the same compound, the EC50 in the data set with Coxsackie-virus B1 (setting [1]) was under 0.01 µg/mL. The same compound came in with a CC50 in the data set “in vitro” (CC50) of over 100 µg/mL.
Take `C=CC(=O)Oc1cc(C(C)C)ccc1C1(OC(=O)C=C)C(=O)c2ccccc2C1=O` [Example 32, 2-(2-(Acryloyloxy)-1,3-dioxo-2,3-dihydro-1H-inden-2-yl)-5-isopropylphenyl acrylate]: the EC50 in the data set with Coxsackie-virus B1 (setting [1]) is under 0.01 µg/mL. In “in vitro” (CC50), this compound displayed a CC50 of 28.7 µg/mL (≈ 70.9 µM).
As for `COC(=O)NC1(c2ccc(C(C)C)cc2OC(=O)OC)C(=O)c2ccccc2C1=O` [Example 48, Methyl 2-(4-isopropyl-2(methoxycarbonyloxy)phenyl)-1,3-dioxo-2,3-dihydro-1H-inden-2-yl carbamate], the EC50 in the data set on Coxsackie-virus B3 (Table 3, read-out: EC50 Coxsackie-virus B3) is under 0.01 µg/mL; in the data set with Coxsackie-virus B1 (setting [1]), under 0.01 µg/mL. Further, the CC50 in “in vitro” (CC50) was determined as 46.7 µg/mL (≈ 114 µM).
Regarding `CC(C)C(=O)NC1(c2ccc(C(C)C)cc2OC(=O)C(C)C)C(=O)c2ccccc2C1=O` [Example 50, 2-(2-Isobutylamido-1,3-dioxo-2,3-dihydro-1H-inden-2-yl)-5-isopropylphenyl isobutyrate], the EC50 with Coxsackie-virus B1 (setting [1]) was 0.0112 µg/mL (≈ 0.0257 µM). Further, the CC50 in “in vitro” (CC50) worked out at 44.3 µg/mL (≈ 102 µM).
With `COc1cc(C(C)C)ccc1C1(NC(C)=O)C(=O)c2ccccc2C1=O` [Example 54, N-(2-(4-Isopropyl-2-methoxyphenyl)-1,3-dioxo-2,3-dihydro-1H-inden-2-yl)acetamide], the melting point is 222 to 224 °C. In addition, the concentration for a half-maximal effect (EC50) in the data set with Coxsackie-virus B1 (setting [1]) was 0.0198 µg/mL (≈ 0.0563 µM). Also, the CC50 in the data set “in vitro” (CC50) is over 117 µg/mL.
In the case of `COc1cc(C(C)C)ccc1C1(NC(C)=O)C(=O)c2cccc(NC(C)=O)c2C1=O` (stereo not drawn) [Example 67, N,N′-(2-(4-Isopropyl-2-methoxyphenyl)-1,3-dioxo-2,3-dihydro-1H-inden-2,4-diyl)diacetamide], the melting point fell in the range of 241 to 243 °C. Further, the CC50 in “in vitro” (CC50) amounted to 54.6 µg/mL (≈ 134 µM).
Regarding `CCCC(=O)NC1(c2ccc(C(C)C)cc2OC(=O)CCC)C(=O)c2ccccc2C1=O` [Example 76, Butyric acid 2-(2-butyrylamino-1,3-dioxo-indan-2-yl)-5-isopropyl-phenyl ester], the EC50 in the data set with Coxsackie-virus B3 (setting [2]) is under 0.04 µg/mL; in the data set on Coxsackie-virus B1 (setting [3]), under 0.01 µg/mL. The same compound returned a CC50 in the data set “in vitro” (Picorna-virus CC50) of 45.1 µg/mL (≈ 104 µM).
Taken in the same sequence, the figures for `CCCCCC(=O)NC1(c2ccc(C(C)C)cc2OC(=O)CCCCC)C(=O)c2ccccc2C1=O` [Example 78, Hexanoic acid 2-(2-hexanoylamino-1,3-dioxo-indan-2-yl)-5-isopropyl-phenyl ester] were under 0.01 µg/mL, under 0.01 µg/mL and 68.2 µg/mL (≈ 139 µM).
`CCCCCCC(=O)NC1(c2ccc(C(C)C)cc2OC(=O)CCCCCC)C(=O)c2ccccc2C1=O` [Example 79, Heptanoic acid 2-(2-heptanoylamino-1,3-dioxo-indan-2-yl)-5-isopropyl-phenyl ester]: the EC50 in the data set with Coxsackie-virus B3 (setting [2]) and with Coxsackie-virus B1 (setting [3]) was under 0.01 µg/mL in each case. The compound further returned a CC50 in “in vitro” (Picorna-virus CC50) of 8.94 µg/mL (≈ 17.2 µM).
As to `CCCCC(=O)NC1(c2ccc(C(C)C)cc2OC(=O)C(C)(C)C)C(=O)c2ccccc2C1=O` [Example 80, 2,2-Dimethyl-propionic acid 2-(1,3-dioxo-2-pentanoylamino-indan-2-yl)-5-isopropyl-phenyl ester], the 50% effective concentration (EC50) with Coxsackie-virus B3 (setting [2]) and in the data set with Coxsackie-virus B1 (setting [3]) was under 0.01 µg/mL throughout. Besides, the CC50 in the data set “in vitro” (Picorna-virus CC50) was over 100 µg/mL.
As for `CCCCC(=O)NC1(c2ccc(C(C)C)cc2OC(=O)CCCC)C(=O)c2cccc(N)c2C1=O` (stereo not drawn) [Example 81, 2-(4-amino-1,3-dioxo-2-pentanamido-2,3-dihydro-1H-inden-2-yl)-5-isopropylphenyl pentanoate], the EC50 in the data set on Polio-virus 3 is 0.012 µg/mL (≈ 0.0251 µM); in the data set with Coxsackie-virus B3 (setting [2]), under 0.01 µg/mL; in the data set with Coxsackie-virus B1 (setting [3]) it was under 0.01 µg/mL. In “in vitro” (Picorna-virus CC50), this compound returned a CC50 of 41.3 µg/mL (≈ 86.2 µM).
Turning to `CCCCCC(=O)NC1(c2ccc(C(C)C)cc2OC(=O)CCCCC)C(=O)c2cccc(N)c2C1=O` (stereo not drawn) [Example 82, 2-(4-Amino-2-hexanamido-1,3-dioxo-2,3-dihydro-1H-inden-2-yl)-5-isopropylphenyl hexanoate], the EC50 in the data set with Polio-virus 3 was 0.015 µg/mL (≈ 0.0296 µM); with Coxsackie-virus B3 (setting [2]) it was under 0.02 µg/mL; in the data set on Coxsackie-virus B1 (setting [3]), under 0.01 µg/mL. For the same compound, in the data set “in vitro” (Picorna-virus CC50), the CC50 is over 100 µg/mL.
In the case of `CCCCCCC(=O)NC1(c2ccc(C(C)C)cc2OC(=O)CCCCCC)C(=O)c2cccc(N)c2C1=O` (stereo not drawn) [Example 83, 2-(4-Amino-2-heptanamido-1,3-dioxo-2,3-dihydro-1H-inden-2-yl)-5-isopropylphenyl heptanoate], the EC50 in the data set on Coxsackie-virus B3 (setting [2]) and in the data set on Coxsackie-virus B1 (setting [3]) was under 0.01 µg/mL in each case. Also, in the data set “in vitro” (Picorna-virus CC50), the CC50 was over 100 µg/mL.
As for `CCC(=O)NC1(c2ccc(C(C)C)cc2OC(=O)CC)C(=O)c2cccc(N)c2C1=O` (stereo not drawn) [Example 84, 2-(4-Amino-1,3-dioxo-2-propionamido-2,3-dihydro-1H-inden-2-yl)-5-isopropylphenyl propionate], the EC50 with Coxsackie-virus B3 (setting [2]) and in the data set with Coxsackie-virus B1 (setting [3]) was under 0.01 µg/mL in each case. The compound also gave a CC50 in “in vitro” (Picorna-virus CC50) of over 100 µg/mL.
On to `CCC(=O)Nc1cc(C)c(C)cc1C1(O)C(=O)c2ccccc2C1=O` [Example 87, N-(2-(2-Hydroxy-1,3-dioxo-2,3-dihydro-1H-inden-2-yl)-4,5-dimethylphenyl)propionamide], for which the 50% effective concentration (EC50) in the data set with Coxsackie-virus B1 (setting [3]) was 0.019 µg/mL (≈ 0.0563 µM). This compound came in with a CC50 in the data set “in vitro” (Picorna-virus CC50) of 8.31 µg/mL (≈ 24.6 µM).
`CCCCCCCC(=O)NC1(c2ccc(C(C)C)cc2OC(=O)CCCCCCC)C(=O)c2cccc(N)c2C1=O` (stereo not drawn) [Example 91, 2-(4-Amino-2-octanamido-1,3-dioxo-2,3-dihydro-1H-inden-2-yl)-5-isopropylphenyl octanoate]: the EC50 with Coxsackie-virus B1 (setting [3]) stood at 0.015 µg/mL (≈ 0.0267 µM). The CC50 in “in vitro” (Picorna-virus CC50) came out at 40 µg/mL (≈ 71.1 µM).
For the compound `COC(=O)Oc1cc(C(C)C)ccc1C1(NC(C)=O)C(=O)c2ccccc2C1=O` [Example 92, 2-(2-Acetamido-1,3-dioxo-2,3-dihydro-1H-inden-2-yl)-5-isopropylphenyl methyl carbonate], the 50% effective concentration (EC50) in the data set with Coxsackie-virus B3 (setting [2]) and in the data set on Coxsackie-virus B1 (setting [3]) was under 0.01 µg/mL throughout. Besides, the CC50 in the data set “in vitro” (Picorna-virus CC50) came to 43.6 µg/mL (≈ 110 µM).
In the case of `CCCCC(=O)Oc1cc(C(C)C)ccc1C1(NC(C)=O)C(=O)c2ccccc2C1=O` [Example 93, 2-(2-Acetamido-1,3-dioxo-2,3-dihydro-1H-inden-2-yl)-5-isopropylphenyl pentanoate], the EC50 with Coxsackie-virus B3 (setting [2]) and with Coxsackie-virus B1 (setting [3]) was under 0.01 µg/mL in each case. This compound showed a CC50 in “in vitro” (Picorna-virus CC50) of 35.2 µg/mL (≈ 83.5 µM).
With `CC(=O)Nc1ccc([N+](=O)[O-])c2c1C(=O)C(O)(c1cc(C)c(C)cc1NC(=O)C(C)C)C2=O` (stereo not drawn) [Example 94, N-(2-(4-Acetamido-2-hydroxy-7-nitro-1,3-dioxo-2,3-dihydro-1H-inden-2-yl)-4,5-dimethylphenyl)isobutyramide], the EC50 in the data set on Coxsackie-virus B3 (setting [2]) and in the data set on Coxsackie-virus B1 (setting [3]) was under 0.01 µg/mL throughout. This compound yielded a CC50 in “in vitro” (Picorna-virus CC50) of 39.2 µg/mL (≈ 86.4 µM).
As for `CC(C)C(=O)Nc1cc(C(C)C)ccc1C1(O)C(=O)c2ccccc2C1=O` [Example 95, N-(2-(2-Hydroxy-1,3-dioxo-2,3-dihydro-1H-inden-2-yl)-5-isopropylphenyl)isobutyramide], the EC50 in the data set on Coxsackie-virus B3 (setting [2]) and in the data set with Coxsackie-virus B1 (setting [3]) was under 0.01 µg/mL each time. Also, the CC50 in the data set “in vitro” (Picorna-virus CC50) was determined as 27.4 µg/mL (≈ 75.1 µM).
With `CC(=O)NC1(c2ccc(C(C)C)cc2OC(=O)Oc2ccccc2)C(=O)c2ccccc2C1=O` [Example 99, Carbonic acid 2-(2-acetylamino-1,3-dioxo-indan-2-yl)-5-isopropyl-phenyl ester phenyl ester], the EC50 in the data set with Coxsackie-virus B3 (setting [2]) and in the data set on Coxsackie-virus B1 (setting [3]) was under 0.01 µg/mL throughout. In addition, the CC50 in “in vitro” (Picorna-virus CC50) is 38.1 µg/mL (≈ 83.2 µM).
With `CCOC(=O)Oc1cc(C(C)C)ccc1C1(NC(C)=O)C(=O)c2ccccc2C1=O` [Example 101, 2-(2-Acetamido-1,3-dioxo-2,3-dihydro-1H-inden-2-yl)-5-isopropylphenyl ethyl carbonate], the concentration giving a half-maximal response (EC50) in the data set with Coxsackie-virus B3 (setting [2]) and with Coxsackie-virus B1 (setting [3]) was under 0.01 µg/mL in each case. Besides, in “in vitro” (Picorna-virus CC50), the CC50 was 46 µg/mL (≈ 112 µM).
For the compound `CCOC(=O)N(C(C)=O)C1(c2ccc(C(C)C)cc2O)C(=O)c2ccccc2C1=O` [Example 102, Ethyl acetyl(2-(2-hydroxy-4-isopropylphenyl)-1,3-dioxo-2,3-dihydro-1H-inden-2-yl)carbamate], the EC50 in the data set with Coxsackie-virus B3 (setting [2]) and with Coxsackie-virus B1 (setting [3]) was under 0.01 µg/mL in each case. Besides, the CC50 in the data set “in vitro” (Picorna-virus CC50) is 42.5 µg/mL (≈ 104 µM).
